What was measured:
Type in all cases: in vivo
[1] = tested on: Spodoptera littoralis (Egyptian Cotton Leaf Worm); experiment: Activity against Spodoptera littoralis, sprayed cotton leaf discs; settings: foliar, 72 h, application rate of 200 ppm, L1 larvae on cotton leaf discs, 3 days after infestation, read-out: control (at least one of mortality, anti-feedant effect, growth inhibition)
Experimental: Example B9: Activity Against Spodoptera littoralis (Egyptian Cotton Leaf Worm)
Cotton leaf discs were placed on agar in 24-well microtiter plates and sprayed with aqueous test solutions prepared from 10′000 ppm DMSO stock solutions. After drying the leaf discs were infested with five L1 larvae. The samples were assessed for mortality, anti-feedant effect, and growth inhibition in comparison to untreated samples 3 days after infestation. Control of Spodoptera littoralis by a test sample is when at least one of mortality, anti-feedant effect, and growth inhibition is higher than the untreated sample.

[2] = tested on: Euschistus heros (Neotropical Brown Stink Bug); experiment: Activity against Euschistus heros, sprayed soybean leaf; settings: 120 h, application rate of 200 ppm, N-2 nymphs on soybean leaf, 5 days after infestation
Experimental: Example B3: Activity Against Euschistus heros (Neotropical Brown Stink Bug)
Soybean leaf on agar in 24-well microtiter plates were sprayed with aqueous test solutions prepared from 10′000 ppm DMSO stock solutions. After drying the leaf were infested with N-2 nymphs. The samples were assessed for mortality 5 days after infestation.

[3] = tested on: Diabrotica balteata (Corn Root Worm); experiment: Activity against Diabrotica balteata, sprayed maize sprouts; settings: 96 h, application rate of 200 ppm, larvae on maize sprouts, 4 days after infestation
Experimental: Example B2: Activity Against Diabrotica balteata (Corn Root Worm)
Maize sprouts, placed on an agar layer in 24-well microtiter plates were treated with aqueous test solutions prepared from 10′000 ppm DMSO stock solutions by spraying. After drying, the plates were infested with […] (6 to 10 per well). The samples were assessed for mortality 4 days after infestation.

[4] = tested on: Bemisia tabaci (Cotton White Fly); experiment: Activity against Bemisia tabaci, sprayed cotton leaf discs; settings: foliar, 144 h, application rate of 200 ppm, adult white flies on cotton leaf discs, 6 days after incubation
Experimental: Example B1: Activity Against Bemisia tabaci (Cotton White Fly)
Cotton leaf discs were placed on agar in 24-well microtiter plates and sprayed with aqueous test solutions prepared from 10′000 ppm DMSO stock solutions. After drying the leaf discs were infested with adult white flies. The samples were checked for mortality 6 days after incubation. […] A35, A36 and A47. A1. A2, A3, A8, A10, A14 and A12.

[5] = tested on: Plutella xylostella (Diamond Back Moth); experiment: Activity against Plutella xylostella, treated artificial diet; settings: 120 h, application rate of 200 ppm, L2 larvae on artificial diet, 5 days after infestation, read-out: effect in at least one of the two categories (mortality or growth inhibition)
Experimental: Example B8: Activity Against Plutella xylostella (Diamond Back Moth)
24-well microtiter plates with artificial diet were treated with aqueous test solutions prepared from 10′000 ppm DMSO stock solutions by pipetting. After drying, the plates were infested with L2 larvae (10 to 15 per well). The samples were assessed for mortality and growth inhibition in comparison to untreated samples 5 days after infestation.

[6] = tested on: Spodoptera littoralis (Egyptian Cotton Leaf Worm); experiment: Activity against Spodoptera littoralis, systemic activity; settings: 144 h, test rate of 12.5 ppm, in agar, lettuce root uptake, 6 days after infestation
From the text: Example B11: Activity Against Spodoptera littoralis (Egyptian Cotton Leaf Worm), Systemic Activity
(§1) Test compounds were applied by pipette from 10′000 ppm DMSO stock solutions into 24-well plates and mixed with agar. Lettuce seeds were placed on the agar and the multi well plate was closed by another plate which contains also agar. After 7 days the roots have absorbed the compound and the lettuce has grown into the lid plate. The lettuce leafs were now cut off into the lid plate. Spodoptera eggs were pipetted through a plastic stencil on a humid gel blotting paper and the plate closed with it. The samples were assessed for mortality 6 days after infestation.

[7] = tested on: Spodoptera littoralis (Egyptian Cotton Leaf Worm); experiment: Activity against Spodoptera littoralis, compound in agar taken up by lettuce; settings: 144 h, test rate of 12.5 ppm, lettuce root uptake, 6 days after infestation, read-out: effect in at least one of the three categories (mortality, anti-feedancy, or growth inhibition)
From the text: Example B10: Activity Against Spodoptera littoralis (Egyptian Cotton Leaf Worm)
as §1, with “mortality, anti-feedant effect and growth inhibition in comparison to untreated samples” for “mortality”

[8] = tested on: Myzus persicae (Green Peach Aphid); experiment: Activity against Myzus persicae, sprayed sunflower leaf discs; settings: foliar, 144 h, application rate of 200 ppm, aphid population of mixed ages on sunflower leaf discs, 6 days after infestation
Experimental: Example B5: Activity Against Myzus persicae (Green Peach Aphid)
Sunflower leaf discs were placed on agar in a 24-well microtiter plate and sprayed with aqueous test solutions prepared from 10′000 ppm DMSO stock solutions. After drying, the leaf discs were infested with an aphid population of mixed ages. The samples were assessed for mortality 6 days after infestation.

[9] = tested on: Aedes aegypti (Yellow Fever Mosquito); experiment: whole plant or invertebrate; settings: 48 h, test rate of 5 ppm, L2 larvae in 96-well plates, incubation period of 2 days, read-out: effect in at least one of the two categories (mortality or growth inhibition)
Experimental: Example B14: Activity Against Aedes aegypti (Yellow Fever Mosquito)
10 to 15 Aedes larvae (L2) together with a nutrition mixture were placed in 96-well microtiter plates. Test compounds were pipetted into the wells. After an incubation period of 2 days insects were assessed for mortality and growth inhibition.

C=CCn1c(C(F)(F)F)cc2nc(-c3ncc(C(F)(F)F)cc3S(=O)(=O)CC)n(C)c2c1=O [Compound A3, 5-allyl-2-[3-ethylsulfonyl-5-(trifluoromethyl)-2-pyridyl]-3-methyl-6-(trifluoromethyl)imidazo[4,5-c]pyridin-4-one]
≥ 80%: percent control (mortality, anti-feedant effect or growth inhibition) at 200 ppm [1] | mortality at 200 ppm [2] | mortality at 200 ppm [3] | mortality at 200 ppm [4] | percent effect (mortality or growth inhibition) at 200 ppm [5]

CCS(=O)(=O)c1cc(Br)cnc1-c1nc2cc(C(F)(F)F)n(C)c(=O)c2n1C [Compound A21, 2-[5-bromo-3-ethylsulfonyl-2-pyridyl]-3,5-dimethyl-6-(trifluoromethyl)imidazo[4,5-c]pyridin-4-one]
≥ 80%: mortality at 12.5 ppm [6] | percent control (mortality, anti-feedant effect or growth inhibition) at 200 ppm [1] | mortality at 200 ppm [2] | mortality at 200 ppm [3] | percent control (mortality, anti-feedancy or growth inhibition) at 12.5 ppm [7] | mortality at 200 ppm [8] | percent effect (mortality or growth inhibition) at 200 ppm [5]

CCS(=O)(=O)c1cc(-c2ccc(C(F)(F)F)cc2)cnc1-c1nc2cc(C(F)(F)F)n(C)c(=O)c2n1C [Compound A22, 2-[3-ethylsulfonyl-5-[4-(trifluoromethyl)phenyl]-2-pyridyl]-3,5-dimethyl-6-(trifluoromethyl)imidazo[4,5-c]pyridin-4-one]
≥ 80%: mortality at 12.5 ppm [6] | percent control (mortality, anti-feedant effect or growth inhibition) at 200 ppm [1] | mortality at 200 ppm [2] | mortality at 200 ppm [3] | percent effect (mortality or growth inhibition) at 5 ppm [9] | percent control (mortality, anti-feedancy or growth inhibition) at 12.5 ppm [7] | mortality at 200 ppm [8] | percent effect (mortality or growth inhibition) at 200 ppm [5]

CCSc1cc(-n2cc(C(F)(F)F)cn2)cnc1-c1nc2cc(C(F)(F)F)n(C)c(=O)c2n1C [Compound A24, 2-[3-ethylsulfanyl-5-[4-(trifluoromethyl)pyrazol-1-yl]-2-pyridyl]-3,5-dimethyl-6-(trifluoromethyl)imidazo[4,5-c]pyridin-4-one]
≥ 80%: percent control (mortality, anti-feedancy or growth inhibition) at 12.5 ppm [7]

CCSc1cc(-n2ccc(C(F)(F)F)n2)cnc1-c1nc2cc(C(F)(F)F)n(C)c(=O)c2n1C [Compound A26, 2-[3-ethylsulfanyl-5-[3-(trifluoromethyl)pyrazol-1-yl]-2-pyridyl]-3,5-dimethyl-6-(trifluoromethyl)imidazo[4,5-c]pyridin-4-one]
≥ 80%: percent control (mortality, anti-feedant effect or growth inhibition) at 200 ppm [1]

CCS(=O)(=O)c1cc(-n2ccc(C(F)(F)F)n2)cnc1-c1nc2cc(C(F)(F)F)n(C)c(=O)c2n1C [Compound A27]
≥ 80%: percent control (mortality, anti-feedant effect or growth inhibition) at 200 ppm [1]

CCS(=O)(=O)c1cc(-c2cc(F)cc(F)c2)cnc1-c1nc2cc(C(F)(F)F)n(C)c(=O)c2n1C [Compound A28, 2-[5-(3,5-difluorophenyl)-3-ethylsulfonyl-2-pyridyl]-3,5-dimethyl-6-(trifluoromethyl)imidazo[4,5-c]pyridin-4-one]
≥ 80%: mortality at 12.5 ppm [6] | percent control (mortality, anti-feedant effect or growth inhibition) at 200 ppm [1] | mortality at 200 ppm [2] | mortality at 200 ppm [3] | percent effect (mortality or growth inhibition) at 5 ppm [9] | percent control (mortality, anti-feedancy or growth inhibition) at 12.5 ppm [7] | percent effect (mortality or growth inhibition) at 200 ppm [5]

CCS(=O)(=O)c1cc(-c2ccc(C#N)cc2)cnc1-c1nc2cc(C(F)(F)F)n(C)c(=O)c2n1C [Compound A41, 4-[6-[3,5-dimethyl-4-OXO-6-(trifluoromethyl)imidazo[4,5-c]pyridin-2-yl]-5-ethylsulfonyl-3-pyridyl]benzonitrile]
≥ 80%: mortality at 12.5 ppm [6] | percent control (mortality, anti-feedant effect or growth inhibition) at 200 ppm [1] | mortality at 200 ppm [2] | mortality at 200 ppm [3] | percent effect (mortality or growth inhibition) at 5 ppm [9] | percent control (mortality, anti-feedancy or growth inhibition) at 12.5 ppm [7] | mortality at 200 ppm [8] | percent effect (mortality or growth inhibition) at 200 ppm [5]

CCS(=O)(=O)c1cc(-c2cc(C(F)(F)F)ccn2)cnc1-c1nc2cc(C(F)(F)F)n(C)c(=O)c2n1C [Compound A42]
≥ 80%: mortality at 12.5 ppm [6] | percent control (mortality, anti-feedant effect or growth inhibition) at 200 ppm [1] | mortality at 200 ppm [2] | mortality at 200 ppm [3] | percent effect (mortality or growth inhibition) at 5 ppm [9] | percent control (mortality, anti-feedancy or growth inhibition) at 12.5 ppm [7] | mortality at 200 ppm [8] | percent effect (mortality or growth inhibition) at 200 ppm [5]

CCS(=O)(=O)c1cc(-c2ccc(C(F)(F)F)cc2)ccc1-c1nc2cc(C(F)(F)F)n(C)c(=O)c2n1C [Compound A70, 2-[2-ethylsulfonyl-4-[4-(trifluoromethyl)phenyl]phenyl]-3,5-dimethyl-6-(trifluoromethyl)imidazo[4,5-c]pyridin-4-one]
≥ 80%: percent control (mortality, anti-feedant effect or growth inhibition) at 200 ppm [1] | mortality at 200 ppm [2] | mortality at 200 ppm [3] | percent effect (mortality or growth inhibition) at 5 ppm [9] | percent effect (mortality or growth inhibition) at 200 ppm [5]

CCS(=O)(=O)c1cc(-c2ncccn2)ccc1-c1nc2cc(C(F)(F)F)n(C)c(=O)c2n1C [Compound A71, 2-(2-ethylsulfonyl-4-pyrimidin-2-yl-phenyl)-3,5-dimethyl-6-(trifluoromethyl)imidazo[4,5-c]pyridin-4-one]
≥ 80%: percent control (mortality, anti-feedant effect or growth inhibition) at 200 ppm [1] | mortality at 200 ppm [2] | mortality at 200 ppm [8] | percent effect (mortality or growth inhibition) at 200 ppm [5]

CCS(=O)(=O)c1cc(-c2ccc(Cl)cc2)ccc1-c1nc2cc(C(F)(F)F)n(C)c(=O)c2n1C [Compound A72, 2-[4-(4-chlorophenyl)-2-ethylsulfonyl-phenyl]-3,5-dimethyl-6-(trifluoromethyl)imidazo[4,5-c]pyridin-4-one]
≥ 80%: percent control (mortality, anti-feedant effect or growth inhibition) at 200 ppm [1] | mortality at 200 ppm [2] | mortality at 200 ppm [3] | percent effect (mortality or growth inhibition) at 200 ppm [5]

CCS(=O)(=O)c1cc(-c2ccc(C(F)(F)F)cc2)cnc1-c1nc2cc(Br)c(=O)n(C)c2n1C [Compound B3]
≥ 80%: percent control (mortality, anti-feedant effect or growth inhibition) at 200 ppm [1] | mortality at 200 ppm [2] | mortality at 200 ppm [3] | mortality at 200 ppm [8] | percent effect (mortality or growth inhibition) at 200 ppm [5]

CCSc1cc(-c2ccc(C(F)(F)F)cc2)cnc1-c1nc2cc(C(F)(F)F)c(=O)n(C)c2n1C [Compound B5, 2-[3-ethylsulfanyl-5-[4-(trifluoromethyl)phenyl]-2-pyridyl]-3,4-dimethyl-6-(trifluoromethyl)imidazo[4,5-b]pyridin-5-one]
≥ 80%: percent control (mortality, anti-feedant effect or growth inhibition) at 200 ppm [1] | mortality at 200 ppm [2] | mortality at 200 ppm [3]
